Measurements reported in PubChem BioAssay (NCI).
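Where inhibition never reached the appropriate level, the endpoint shown equals the highest concentration tested. Otherwise, values were interpolated linearly from a five-concentration, 48-hour dose response in 96-well plates. GI50 is the concentration that inhibits growth by half. At the TGI there is no net growth.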

Legend:
Assay in all cases: NCI-60 cell line screen, 48 h
[1] = test system: HOP-62 NSCLC
[2] = test system: U251 CNS
[3] = test system: MDA-MB-435
[4] = test system: CAKI-1 renal
[5] = test system: LOX IMVI melanoma
[6] = test system: BT-549 breast
[7] = test system: SR leukemia
[8] = test system: EKVX NSCLC
[9] = test system: SW-620 colon
[10] = test system: SN12C renal
[11] = test system: ACHN renal
[12] = test system: RXF 393 renal
[13] = test system: NCI-H460 lung
[14] = test system: K-562 leukemia
[15] = test system: HT29 colon
[16] = test system: A549 NSCLC
[17] = test system: DU-145 prostate
[18] = test system: SK-OV-3 ovarian
[19] = test system: A498 renal
[20] = test system: UACC-62 melanoma
[21] = test system: MDA-MB-231 breast
[22] = test system: NCI-H522 lung
[23] = test system: MOLT-4 leukemia
[24] = test system: SK-MEL-28 melanoma
[25] = test system: NCI-H226 lung
[26] = test system: UO-31 renal
[27] = test system: OVCAR-8 ovarian
[28] = test system: COLO 205 colon
[29] = test system: MCF7 breast
[30] = test system: SK-MEL-2 melanoma
[31] = test system: UACC-257 melanoma
[32] = test system: OVCAR-5 ovarian
[33] = test system: SF-295 CNS
[34] = test system: NCI/ADR-RES ovarian
[35] = test system: MALME-3M melanoma
[36] = test system: M14 melanoma
[37] = test system: IGROV1 ovarian
[38] = test system: HL-60(TB) leukemia
[39] = test system: SNB-19 CNS
[40] = test system: TK-10 renal
[41] = test system: HCT-116 colon
[42] = test system: NCI-H23 lung
[43] = test system: 786-0 renal
[44] = test system: OVCAR-3 ovarian
[45] = test system: OVCAR-4 ovarian
[46] = test system: T-47D breast
[47] = test system: KM12 colon
[48] = test system: HCT-15 colon
[49] = test system: SK-MEL-5 melanoma
[50] = test system: SF-268 CNS
[51] = test system: HCC-2998 colon

Compound: COc1ccc(C2=C(c3cn(C)c4ccccc34)C(=O)OC2)cc1OC
- GI50 [1]: 3 µM
- TGI [1]: > 100 µM
- GI50 [2]: 2.64 µM
- TGI [2]: > 100 µM
- GI50 [3]: 0.265 µM
- TGI [3]: 0.801 µM
- GI50 [4]: 0.747 µM
- TGI [4]: > 100 µM
- GI50 [5]: 4.54 µM
- TGI [5]: > 100 µM
- GI50 [6]: 2.79 µM
- TGI [6]: > 100 µM
- GI50 [7]: 0.411 µM
- TGI [7]: > 100 µM
- GI50 [8]: 4.64 µM
- TGI [8]: > 100 µM
- GI50 [9]: 0.587 µM
- TGI [9]: > 100 µM
- GI50 [10]: 6.81 µM
- TGI [10]: > 100 µM
- GI50 [11]: 7.95 µM
- TGI [11]: > 100 µM
- GI50 [12]: 1.92 µM
- TGI [12]: 6.11 µM
- GI50 [13]: 2.21 µM
- TGI [13]: > 100 µM
- GI50 [14]: 0.441 µM
- TGI [14]: > 100 µM
- GI50 [15]: 0.688 µM
- TGI [15]: > 100 µM
- GI50 [16]: 2.67 µM
- TGI [16]: > 100 µM
- GI50 [17]: 3.13 µM
- TGI [17]: > 100 µM
- GI50 [18]: 5.6 µM
- TGI [18]: > 100 µM
- GI50 [19]: 0.374 µM
- TGI [19]: 3.5 µM
- GI50 [20]: 1.28 µM
- TGI [20]: > 100 µM
- GI50 [21]: 2.42 µM
- TGI [21]: > 100 µM
- GI50 [22]: 1.19 µM
- TGI [22]: > 100 µM
- GI50 [23]: 2.8 µM
- TGI [23]: > 100 µM
- GI50 [24]: 9.87 µM
- TGI [24]: > 100 µM
- GI50 [25]: 3.26 µM
- TGI [25]: > 100 µM
- GI50 [26]: 1.93 µM
- TGI [26]: > 100 µM
- GI50 [27]: 4.69 µM
- TGI [27]: > 100 µM
- GI50 [28]: 1.5 µM
- TGI [28]: 27.9 µM
- GI50 [29]: 0.713 µM
- TGI [29]: > 100 µM
- GI50 [30]: 4.34 µM
- TGI [30]: > 100 µM
- GI50 [31]: > 100 µM
- TGI [31]: > 100 µM
- GI50 [32]: 5.96 µM
- TGI [32]: > 100 µM
- GI50 [33]: 2.65 µM
- TGI [33]: > 100 µM
- GI50 [34]: 0.87 µM
- TGI [34]: > 100 µM
- GI50 [35]: 9.32 µM
- TGI [35]: > 100 µM
- GI50 [36]: 0.938 µM
- TGI [36]: > 100 µM
- GI50 [37]: 1.72 µM
- TGI [37]: > 100 µM
- GI50 [38]: 1.42 µM
- TGI [38]: 6.48 µM
- GI50 [39]: 4.18 µM
- TGI [39]: > 100 µM
- GI50 [40]: > 100 µM
- TGI [40]: > 100 µM
- GI50 [41]: 1.16 µM
- TGI [41]: > 100 µM
- GI50 [42]: 4.04 µM
- TGI [42]: > 100 µM
- GI50 [43]: 6.67 µM
- TGI [43]: > 100 µM
- GI50 [44]: 1.25 µM
- TGI [44]: 5.45 µM
- GI50 [45]: 6.77 µM
- TGI [45]: > 100 µM
- GI50 [46]: 4.07 µM
- TGI [46]: > 100 µM
- GI50 [47]: 1.45 µM
- TGI [47]: > 100 µM
- GI50 [48]: 0.621 µM
- TGI [48]: > 100 µM
- GI50 [49]: 3.74 µM
- TGI [49]: > 100 µM
- GI50 [50]: 16.8 µM
- TGI [50]: > 100 µM
- GI50 [51]: 2.86 µM
- TGI [51]: > 100 µM
